# Results: patent US12569482B2, “Methods and compositions for treating idiopathic pulmonary fibrosis” (priority 2018, dated 2026)
# Read-outs that look alike come from different tables or passages of the source.
# Tests used:
# Type in all cases: in vivo, C57BL/6 mice
# [1] = test system: bleomycin-induced lung fibrosis; test: Bleomycin induced IPF mouse model, Example 1 (oral nintedanib or fluconazole); settings: nintedanib 60 mg/kg
# Description: Forty male C57BL/6 mice (Nanjing Biomedical Research Institute of Nanjing University) were randomly divided into two groups on Day 1, 10 animals for one group (referred to as Control group or Group 1) and 30 for the other. The animals in the Control group were administered intratracheally with PBS at a dose of 2 mL/kg while the others were administered intratracheally with bleomycin (Cat #HY-17565, MCE) at a dose of 0.66 mg/kg.
# On Day 5, the mice with bleomycin treatment were divided into three groups at random (referred to as Group 2-4, n=10), and orally administered with vehicle (0.5% Methyl cellulose), nintedanib (Kangmanlin Co. Ltd., prepared in 0.5% Methyl cellulose with a final concentration of 6.0 mg/mL) and fluconazole (Kangmanlin Co. Ltd., prepared in 0.5% Methyl cellulose with a final concentration of 7.0 mg/mL) at daily doses of 10 mL/kg, 60 mg/kg and 70 mg/kg, respectively. The mice in the Control group was administered with vehicle (0.5% Methyl cellulose) at a daily dose of 10 mL/kg. Mice body weights were measured and recorded on Day 1, 5, 12, 19 and 25.
# Two hours post drug administration on Day 25, all animals were anaesthetized with pentobarbital (i.p., 65 mg/kg). Blood samples were collected from orbital vein, put in tubes pre-coated with EDTA-K2 (KANG JIAN, Cat #KJ202), centrifuged at 4000×g for 10 minutes at 4° C. and then stored at −80° C. for determination of plasma drug levels. Then, the trachea was exposed, and bronchoalveolar lavage fluid (BALF) was collected from each mouse by injecting 0.3 mL of saline into trachea close to the larynx for three times. After BALF collection, mice were perfused with saline, and all four lung lobes were collected from each mouse, fixed in 10% NBF solution, embedded in paraffin and cut into 5 μm-thick sections. The sections were de-paraffinized with xylene and ethanol and subject to Haematoxylin-Eosin, Masson Trichrome and α-SMA IHC staining.
# The bronchoalveolar lavage fluid of 20 μL was mixed with 20 μL of trypan blue to determine the cell number. Then, the cells in the BALF were concentrated using a Cytospinat at 1,000 rpm for 5 minutes, smeared on slides and then stained with Diff-Quik stain. Cell types (alveolar macrophages, neutrophils, or lymphocytes) were determined by counting at least 200 cells using a standard hemocytometer. The rest BALFs were centrifuged and supernatants were collected and stored at −80° C. for soluble collagen analysis.
# The Haematoxylin-Eosin staining was used to identify and quantitate the inflammatory cells in the tissues, and the total inflammation area was calculated using the AperioScanScope software.
# The sections with Masson Trichrome staining were scored for pulmonary fibrosis according to the modified Ashcroft fibrosis rating criteria in Table 1 below. Each lung lobe was divided into 4 parts according to the distance from the main bronchus, i.e., the upper, upper middle, lower middle and lower parts, which were scored separately and averaged later.
# α-SMA is a well characterized marker in fibrosis. Immunohistochemistry staining of α-SMA is often used to characterize and quantitate the tissue fibrosis. Increased staining of α-SMA often reflects accumulation of collagen-producing myofibroblasts. Before α-SMA IHC staining, the de-paraffinized sections were treated with citrate antigen retrieval solution (0.01 N citrate buffer, pH 6.0) at 100° C. for 10 minutes, and then incubated with rabbit polyclonal anti-α-SMA (1:400, ab5694, Abcam) for 1 hour followed by goat anti-rabbit HRP (K4003, Dako). DAB substrate kit (DAB0031, Maixin, Shanghai) was used for chromogenic staining. All sections were further counter-stained with hematoxylin. […] α-SMA staining areas were calculated using the AperioImageScope program.
# Statistical analysis was performed using student's T-test, one-way or two-way ANOVA followed by post-hoc Dunnett's test if significant. […] The difference was considered significant when p<0.05. *p<0.05, **p<0.01, ***[…].
# [2] = test system: bleomycin-induced lung fibrosis; test: Bleomycin induced IPF mouse model, Example 2 (oral itraconazole, nintedanib or combination)
# Description: The animals in the Control group were administered intratracheally with PBS at a dose of 2 mL/kg while the others were administered intratracheally with bleomycin (Cat #HY-17565, MCE) at a dose of 0.66 mg/kg. On Day 5, the mice with bleomycin treatment were divided into four groups at random (referred to as Group 2-5, n=10), and orally administered with vehicle (DMSO: PEG400=1:[…]), itraconazole ([…] Co. Ltd. prepared in DMSO/PEG400 with a final concentration of 1.5 mg/mL), nintedanib ([…] Co. […] The mice in the Control group was administered with vehicle (DMSO/PEG400) at a daily dose of 10 mL/kg. Mice body weights were measured and recorded on Day 1, 5, 12, 19 and 21.
# [3] = Plasma drug levels, Example 2; settings: C57BL/6, mouse
# Description: On Day 5, the mice with bleomycin treatment were divided into four groups at random (referred to as Group 2-5, n=10), and orally administered with vehicle (DMSO: PEG400=1:9, V/V), itraconazole (Kangmanlin Co. Ltd. prepared in DMSO/PEG400 with a final concentration of 1.5 mg/mL), nintedanib (Kangmanlin Co. Ltd., prepared in DMSO/PEG400 with a final concentration of 6.0 mg/mL), and itraconazole+nintedanib (prepared in DMSO/PEG400 with final concentrations of 1.5 mg/mL and 6.0 mg/mL) at daily doses of 10 mL/kg, 15 mg/kg, 60 mg/kg and 15+60 mg/kg, respectively. The mice in the Control group was administered with vehicle (DMSO/PEG400) at a daily dose of 10 mL/kg. Mice body weights were measured and recorded on Day 1, 5, 12, 19 and 21.
# Two hours post drug administration on Day 21, all animals were anaesthetized with pentobarbital (i.p., 60 mg/kg). Blood sample, bronchoalveolar lavage fluid (BALF) and lung lobes were collected from each mouse and then processed following the protocols in Example 1.
# [4] = compared to model group, 15 mg/kg, 60 mg/kg, 15+60 mg/kg p.o. daily
structure (smiles),measurement,setting,value
COC(=O)c1ccc2c(c1)NC(=O)/C2=C(\Nc1ccc(N(C)C(=O)CN2CCN(C)CC2)cc1)c1ccccc1 [nintedanib],reduction of lung inflammation area,"[1]; Haematoxylin-Eosin staining, fluconazole 70 mg/kg p.o. daily",84%
same,reduction of modified Ashcroft score,"[1]; Masson Trichrome staining, fluconazole 70 mg/kg p.o. daily",39%
same,anti-IPF activities / fibrosis related endpoint measurements (overall),[1]; fluconazole 70 mg/kg daily dose,efficacious
same,total cell number and macrophage/monocyte number in BALF,[1]; oral daily Day 5-25,reduced cell number to some extent
same,BALF collagen levels,"[1]; oral daily Day 5-25, fluconazole 70 mg/kg, vs bleomycin + vehicle",significantly reduced collagen levels
same,reduction of α-SMA staining area,"[1]; α-SMA IHC, fluconazole 70 mg/kg p.o. daily",39%
same,BALF collagen level,[2]; [4],reduced
same,BALF neutrophil number,[2]; [4],reduced
same,lung inflammation area,[2]; [4],significantly reduced
same,modified Ashcroft score,[2]; [4],significantly reduced
same,α-SMA staining area,[2]; [4],significantly reduced
same,mice body weight,"[2]; itraconazole 15 mg/kg, nintedanib 60 mg/kg, 15+60 mg/kg p.o. daily Day 5-21",inhibited bleomycin-induced body weight reduction to some extent
same,concentration at 2 h,"[3]; oral, Day 21, itraconazole 15 mg/kg, nintedanib 60 mg/kg p.o. daily, read-out: two-hour post dosing plasma level, single agent",310 ng/mL
same,concentration at 2 h,"[3]; po, Day 21, 15+60 mg/kg p.o. daily, read-out: two-hour post dosing plasma drug level, itraconazole and nintedanib combined in administration",397 ng/mL
